In general, pEC50 refers to the EC50 on a negative log10 scale, so that one unit is a factor of ten. Higher therefore signals a small EC50.

This is an account of results in US9133158B2, “Bicyclic dihydroisoquinoline-1-one derivatives” (Hoffmann-La Roche Inc., priority 2011, dated 2015).

Each structure is given as a SMILES string. pEC50: −log10 of the molar value.

One assay deals with T1, human CYP11B1 (Homo sapiens, UniProt P15538).
T1 construct: expressed in transfected cells
T1 sequence (P15538 25-503): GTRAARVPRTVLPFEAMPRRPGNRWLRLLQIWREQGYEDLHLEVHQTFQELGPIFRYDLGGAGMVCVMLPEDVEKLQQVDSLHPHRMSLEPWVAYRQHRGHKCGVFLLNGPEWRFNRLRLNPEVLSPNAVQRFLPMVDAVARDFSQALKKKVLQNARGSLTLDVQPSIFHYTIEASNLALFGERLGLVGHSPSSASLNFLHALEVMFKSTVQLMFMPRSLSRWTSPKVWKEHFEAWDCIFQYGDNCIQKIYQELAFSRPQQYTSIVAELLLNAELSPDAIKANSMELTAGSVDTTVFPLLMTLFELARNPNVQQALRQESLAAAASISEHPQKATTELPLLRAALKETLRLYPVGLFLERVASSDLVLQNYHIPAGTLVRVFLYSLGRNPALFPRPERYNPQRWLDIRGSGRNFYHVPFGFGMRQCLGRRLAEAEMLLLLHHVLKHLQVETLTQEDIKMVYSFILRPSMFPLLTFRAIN
Put plainly: G-402 cellular enzyme assay, human CYP11B1 (cortisol release, HTRF). The assay is classed as cell-based. The conditions noted are these: G-402 cells, 1 μM Deoxycortisol. The gist of the method: (§1)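 Supernatant steroid product measured by HTRF (aldosterone for CYP11B2, cortisol for CYP11B1) after 16 h exposure of stably transfected G-402 cells to compound. Substrates were 1 μM deoxycorticosterone and 1 μM deoxycortisol, respectively; EC50 derived from a four-parameter MMF curve fit.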
On the technique in general: Time-resolved FRET reads energy transfer from a long-lived donor to a nearby acceptor.

The target of the next assay is T2, human CYP11B2 (Homo sapiens, UniProt P19099).
T2 construct: expressed in transfected cells
T2 sequence (P19099 25-503): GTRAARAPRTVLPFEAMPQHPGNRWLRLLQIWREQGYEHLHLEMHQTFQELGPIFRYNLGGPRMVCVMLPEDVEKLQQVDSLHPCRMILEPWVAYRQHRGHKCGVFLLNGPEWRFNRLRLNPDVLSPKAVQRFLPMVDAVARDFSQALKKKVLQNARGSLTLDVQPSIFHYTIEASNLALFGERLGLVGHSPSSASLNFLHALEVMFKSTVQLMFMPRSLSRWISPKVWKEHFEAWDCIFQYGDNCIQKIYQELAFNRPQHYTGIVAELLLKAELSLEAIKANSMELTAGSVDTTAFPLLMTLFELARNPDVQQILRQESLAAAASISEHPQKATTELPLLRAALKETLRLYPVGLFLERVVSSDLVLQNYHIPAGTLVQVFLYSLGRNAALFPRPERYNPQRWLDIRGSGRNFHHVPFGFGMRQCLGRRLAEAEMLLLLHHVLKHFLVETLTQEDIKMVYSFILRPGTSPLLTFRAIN
Nature of the assay: G-402 cellular enzyme assay, human CYP11B2 (aldosterone release, HTRF). It counts as cell-based. To be noted: G-402 cells, 1 μM Deoxycorticosterone. The gist of the method: as §1

With `CC(O)c1cncc(N2CCc3cc(Cl)ccc3C2=O)c1` (stereo not drawn) [Example 13, 6-Chloro-2-[5-(1-hydroxy-ethyl)-pyridin-3-yl]-3,4-dihydro-2H-isoquinolin-1-one], the negative logarithm of the EC50 (pEC50) on human CYP11B1 is 6.06; at human CYP11B2, 7.27.

For `CC1(C)c2cc(Cl)ccc2C(=O)N1c1cncc(CNC(=O)c2ccccn2)c1` [Example 434, Pyridine-2-carboxylic acid [5-(6-chloro-1,1-dimethyl-3-oxo-1,3-dihydro-isoindol-2-yl)-pyridin-3-ylmethyl]-amide], the pEC50 is 6.64 on human CYP11B1 and 8.18 on human CYP11B2.

As for `CC(Nc1ncco1)c1cncc(N2CCc3cc(Cl)ccc3C2=O)c1` (stereo not drawn) [Example 272, 6-Chloro-2-{5-[1-(oxazol-2-ylamino)-ethyl]-pyridin-3-yl}-3,4-dihydro-2H-isoquinolin-1-one], the pEC50 on human CYP11B1 is 6.68; at human CYP11B2 it was 7.22.

On to `CC(Nc1cccc(F)c1)c1cncc(N2CCc3cc(Cl)ccc3C2=O)c1` (stereo not drawn) [Example 277, 6-Chloro-2-{5-[1-(3-fluoro-phenylamino)-ethyl]-pyridin-3-yl}-3,4-dihydro-2H-isoquinolin-1-one], for which the pEC50 is 6.79 at human CYP11B1 and 7.19 on human CYP11B2.

`O=C1c2ccc(Cl)cc2CN1c1cncc2c1CCC[C@H]2O` [Example 341, 5-Chloro-2-((R)-8-hydroxy-5,6,7,8-tetrahydro-isoquinolin-4-yl)-2,3-dihydro-isoindol-1-one]: the figures for the negative logarithm of the EC50 (pEC50) at human CYP11B1 and at human CYP11B2 were 5.78 and 7.49, respectively.

With `CC(C)S(=O)(=O)NCc1cncc(N2CCc3cc(Cl)ccc3C2=O)c1` [Example 145, Propane-2-sulfonic acid [5-(6-chloro-1-oxo-3,4-dihydro-1H-isoquinolin-2-yl)-pyridin-3-ylmethyl]-amide], the pEC50 on human CYP11B1 is 5.72; on human CYP11B2 it was 5.82.

For `CCOc1ccc2c(n1)C(C)(C)N(c1cncc(OC(F)F)c1)C2=O` [Example 303, 6-(5-Difluoromethoxy-pyridin-3-yl)-2-ethoxy-7,7-dimethyl-6,7-dihydro-pyrrolo[3,4-b]pyridin-5-one], the pEC50 on human CYP11B1 was 4.90; on human CYP11B2, 7.03.

As to `Cn1ccnc1C(=O)c1cncc(N2CCc3cc(Cl)ccc3C2=O)c1` [Example 267, 6-Chloro-2-[5-(1-methyl-4H-imidazole-2-carbonyl)-pyridin-3-yl]-3,4-dihydro-2H-isoquinolin-1-one], the negative logarithm of the EC50 (pEC50) at human CYP11B1 was 4.95; at human CYP11B2, 5.79.

With `COc1cncc(N2CCc3c(ccc(Cl)c3F)C2=O)c1` [Example 99, 6-Chloro-5-fluoro-2-(5-methoxy-pyridin-3-yl)-3,4-dihydro-2H-isoquinolin-1-one], the pEC50 at human CYP11B1 was 5.14; on human CYP11B2 it was 6.05.

As for `Cc1ncn(C)c1-c1cncc(N2CCc3cc(Cl)ccc3C2=O)c1` [Example 80, 6-Chloro-2-[5-(3,5-dimethyl-3H-imidazol-4-yl)-pyridin-3-yl]-3,4-dihydro-2H-isoquinolin-1-one], the pEC50 at human CYP11B1 was 7.24; at human CYP11B2 it was 8.33.

Take `CC(=O)N1CC(Oc2cncc(N3C(=O)c4ccc(Cl)cc4C3(C)C)c2)C1` [Example 450, 2-[5-(1-Acetyl-azetidin-3-yloxy)-pyridin-3-yl]-5-chloro-3,3-dimethyl-2,3-dihydro-isoindol-1-one]: the results for the pEC50 on human CYP11B1 and at human CYP11B2 were 4.70 and 6.91, respectively.

Turning to `CCC(=O)NCc1cncc(N2C(=O)c3ccc(Cl)cc3C2(C)C)c1` [Example 397, N-[5-(6-Chloro-1,1-dimethyl-3-oxo-1,3-dihydro-isoindol-2-yl)-pyridin-3-ylmethyl]-propionamide], the negative-log EC50 (pEC50) on human CYP11B1 was 5.10; at human CYP11B2 it was 6.55.

Consider `O=C1c2ccc(Cl)cc2CCN1c1cnccc1CO` [Example 56, 6-Chloro-2-(4-hydroxymethyl-pyridin-3-yl)-3,4-dihydro-2H-isoquinolin-1-one; compound with trifluoro-acctic acid], for which the results for the negative logarithm of the EC50 (pEC50) on human CYP11B1 and at human CYP11B2 were 4.86 and 6.53, respectively.

On to `O=C1c2ccc(Cl)cc2CCN1c1cncc(Cn2cccn2)c1` [Example 160, 6-Chloro-2-(5-pyrazol-1-ylmethyl-pyridin-3-yl)-3,4-dihydro-2H-isoquinolin-1-one], for which the pEC50 on human CYP11B1 is 6.38; at human CYP11B2, 7.44.

With `CC(=O)N[C@H]1CCCc2c1cncc2N1C(=O)c2ccc(Cl)cc2[C@@H]1C` (single isomer, unassigned) [Example 365, N-[(S or R)-4-((S or R)-5-Chloro-3-methyl-1-oxo-1,3-dihydro-isoindol-2-yl)-5,6,7,8-tetrahydro-isoquinolin-8-yl]-acetamide], the negative-log EC50 (pEC50) on human CYP11B1 was 4.80; on human CYP11B2 it was 6.47.

With `Cc1cc(C)n(Cc2cncc(N3CCc4cc(Cl)ccc4C3=O)c2)n1` [Example 151, 6-Chloro-2-[5-(3,5-dimethyl-pyrazol-1-ylmethyl)-pyridin-3-yl]-3,4-dihydro-2H-isoquinolin-1-one], the negative-log EC50 (pEC50) on human CYP11B1 is 5.41; at human CYP11B2 it was 7.00.

Turning to `O=C1c2ccc(Cl)cc2CCN1c1cncc(CN2CCOCC2)c1` [Example 154, 6-Chloro-2-(5-morpholin-4-ylmethyl-pyridin-3-yl)-3,4-dihydro-2H-isoquinolin-1-one], the results for the negative-log EC50 (pEC50) on human CYP11B1 and on human CYP11B2 were 6.71 and 7.13, respectively.

On to `CCC1c2cc(Cl)ccc2C(=O)N1c1cncc(OC(F)F)c1` (stereo not drawn) [Example 282, 5-Chloro-2-(5-difluoromethoxy-pyridin-3-yl)-3-ethyl-2,3-dihydro-isoindol-1-one], for which the pEC50 on human CYP11B1 is 6.32; at human CYP11B2, 7.37.

`CN1CCN(Cc2cncc(N3CCc4cc(Cl)ccc4C3=O)c2)CC1` [Example 167, 6-Chloro-2-[5-(4-methyl-piperazin-1-ylmethyl)-pyridin-3-yl]-3,4-dihydro-2H-isuquinolin-1-one]: the negative-log EC50 (pEC50) on human CYP11B1 is 6.77; at human CYP11B2, 7.32.

For the compound `O=C1c2ccc(Cl)cc2CCN1c1cncc(Cc2ccc(N3CCOCC3)nc2)c1` [Example 207, 6-Chloro-2-[5-(6-morpholin-4-yl-pyridin-3-ylmethyl)-pyridin-3-yl]-3,4-dihydro-2H-isoquinolin-1-one], the negative logarithm of the EC50 (pEC50) on human CYP11B1 was 7.74; at human CYP11B2, 8.55.

Turning to `Cn1ncnc1-c1cncc(N2CCc3cc(Cl)ccc3C2=O)c1` [Example 67, 6-Chloro-2-[5-(2-methyl-2H-[1,2,4]triazol-3-yl)-pyridin-3-yl]-3,4-dihydro-2H-isoquinolin-1-one], the negative logarithm of the EC50 (pEC50) on human CYP11B1 is 5.92; at human CYP11B2 it was 6.99.

As for `CCC(=O)N1CCN(c2cncc(N3C(=O)c4ccc(Cl)cc4C3(C)C)c2)CC1` [Example 456, 5-Chloro-3,3-dimethyl-2-[5-(4-propionyl-piperazin-1-yl)-pyridin-3-yl]-2,3-dihydro-isoindol-1-one], the pEC50 on human CYP11B1 was 6.98; on human CYP11B2 it was 8.92.

Take `CC(c1cncc(N2CCc3cc(Cl)ccc3C2=O)c1)n1cccn1` (stereo not drawn) [Example 271, 6-Chloro-2-[5-(1-pyrazol-1-yl-ethyl)-pyridin-3-yl]-3,4-dihydro-2H-isoquinolin-1-one]: the pEC50 at human CYP11B1 is 6.60; on human CYP11B2, 7.61.

On to `Cc1ccncc1N1C(=O)c2ccc(Cl)cc2C1C` (stereo not drawn) [Example 121, 5-Chloro-3-methyl-2-(4-methyl-pyridin-3-yl)-2,3-dihydro-isoindol-1-one], for which the pEC50 was 7.41 on human CYP11B1 and 8.15 at human CYP11B2.

Turning to `CCC(=O)N[C@@H]1CCCc2c1cncc2N1C(=O)c2ccc(Cl)cc2[C@@H]1C` (single isomer, unassigned) [Example 359, N-[(R or S)-4-((S or R)-5-Chloro-3-methyl-1-oxo-1,3-dihydro-isoindol-2-yl)-5,6,7,8-tetrahydro-isoquinolin-8-yl]-propionamide], the pEC50 on human CYP11B1 was 6.39; at human CYP11B2, 8.22.

Take `CC1(C)c2cc(Cl)ccc2C(=O)N1c1cncc(N2CC[C@H](O)C2)c1` [Example 454, 5-Chloro-2-[5-((S)-3-hydroxy-pyrrolidin-1-yl)-pyridin-3-yl]-3,3-dimethyl-2,3-dihydro-isoindol-1-one]: the pEC50 at human CYP11B1 is 7.21; on human CYP11B2, 8.18.

With `Cc1ccn(Cc2cncc(N3CCc4cc(Cl)ccc4C3=O)c2)n1` [Example 190, 6-Chloro-2-[5-(3-methyl-pyrazol-1-ylmethyl)-pyridin-3-yl]-3,4-dihydro-2H-isoquinolin-1-one], the negative logarithm of the EC50 (pEC50) at human CYP11B1 is 5.14; on human CYP11B2 it was 6.48.
